Test results from patent publication US10098906B2, “Modulation of the physical interaction between platelets and the cell surface effecting cell proliferation” (Cell Receptor GmbH, priority 2013, dated 2018).
“And” between values parts separate entries of the source, which are not always exact repeats. Equal entries are not always repeated.

How the values were obtained:
platelets = test: In vitro platelet aggregation compared with UFH; assay type: cell-based; conditions: in vitro studies
[1] = fraction of heparin activity; cited from earlier work
HeLa cells = test: Cell culture experiment for testing inhibition of cell proliferation (daily co-incubation with platelets, serum-free); assay type: cell-based, human; conditions: inhibitor 1.0 or 0.1 μg/mL co-incubated with platelets 30 minutes daily, serum-free Eagle's MEM
Experimental: In order to interrogate the effectiveness of PPS and DXS with respect to the inhibition of cell growth, the following experiment may be carried out.
Experiment duration: 5 days; Culture medium: Eagle's MEM without serum addition.
Test approach: PPS or DXS in 1.0, 0.1 μg/mL, and control (0 μg/mL final concentration).
HeLa cells are cultured from stocks: 10^4 cells/25 cm^2 flask, cell numbers are counted in a Fuchs-Rosenthal chamber. Platelets are prepared as described above.
Platelets and HeLa cells, or other tumor cell lines, either with or without inhibitor, are co-incubated for 30 minutes once every day, for 1 to 4 days. After co-incubation the cells are washed as described above and then allowed to rest under standard culture conditions. Typically 90×10^6 platelets are incubated per well per day.
On day 5, cells are washed with HBSS, photographed, trypsinized and the cell number counted as described above.

HeLa cells, clone S3 = test: Adhesion experiment (platelet binding to cell surface), microscopic quantification; assay type: cell-based, human; conditions: for Inhibition of platelet binding to growing cells: 0.1 ppm, FIG. 11, triplicate; for Inhibition of platelet binding to growing cells (in words): concentration not stated; for Reduction of platelet binding to the cells: 0.01 U/mL; for Inhibition of the binding of platelets to the HeLa cells: 0.1 U/mL, FIGS. 5 to 9
Experimental: The process for evaluating the platelet binding of growing cells involves the isolation of platelets from peripheral blood with two subsequent washes and cell sedimentation. These washes include a partial activation of the platelets, which is relevant for their interaction with Heparin. The incubation with the cells under investigation takes place under conditions in which full activation of platelets is approached, which would lead to lumps forming in the platelets. This would hinder analysis. Therefore, a low concentration of EDTA is added to the assay. The quantification of platelets and the calculation of the surface portions of cells and background is carried out using appropriate software, namely by macros in the open source program ImageJ.
Virus and mycoplasma free HeLa cells, clone S3, and human skin fibroblasts (NHDF) were purchased from Promo Cell, Heidelberg. Their human origin was confirmed by STR-Analysis. HeLa cells were maintained in Eagles MEM with 10% fetal calf serum. The NHDF were also maintained with 10% fetal calf serum in RPMI 1640. The passaging was performed by trypsin-EDTA treatment. The cell lines were maintained in either 25 ml bottles or in 3 cm plates.
The cells used for the experiment are cultured for 2 or 3 days in standard plates. At the start of the experiment about ⅓ of the plate surface should be covered with cells. The culture plates are subsequently washed with the buffer mixture described above and filled with further buffer mixture. For example, 30 mm culture dishes are filled with 2 ml 37° C. pre-warmed buffer mixture and 3×10^7 platelets obtained from the above-mentioned suspension.
The platelet-treated plates are incubated at 37° C. for 60 minutes. In this incubation, the pretreated platelets adhere to proliferating cells. However, cells of G0-phase bind little or none of the pre-treated platelets. This stage of incubation is when the substance to be tested is added to the cell culture buffer, in order to detect whether an effect on platelet binding is observed.
After the one hour incubation, the plates are washed at room temperature with the above mentioned buffer mixture until no free water floating platelets (generally 2 to 4 washes) are present and immediately fixed with glutaraldehyde (1% v/v in H2O).
The evaluation is carried out photographically. For this purpose, the image analysis program ImageJ is applied. The number of cell-bound platelets in relation to the recorded cell number of cells is determined. Additionally, the number of cell-bound platelets in relation to the cell-covered area may be determined.
Images are produced after the fixation in triplicate per plate. Phase contrast or brightfield 25×, 16× or 10× objectives are used. Image analysis is carried out according to SOP IJ. The open source program ImageJ may be used to for differential image subtraction and mask optimization. Subsequently, platelet number, cell number and proportional cell surface are determined by other IJ components.

[2] = Anticoagulant activity compared with heparin; conditions: in vitro studies

Dextran sulfate sodium salt from Leuconostoc spec [DXS]
Platelet aggregation in comparison to UFH (platelets): reduced platelet aggregation | Anticoagulant activity relative to heparin [1]: much weaker | Increase of cell number (proliferation) on day 5 (HeLa cells): increases to a reduced extent | Inhibition of platelet binding to growing cells (HeLa cells, clone S3): roughly 75% | Inhibition of platelet binding to growing cells (in words) (HeLa cells, clone S3): reproducible inhibition | Anticoagulation in comparison to UFH [2]: reduced anticoagulation

dalteparin
Reduction of platelet binding to the cells (HeLa cells, clone S3): significant reduction | Inhibition of the binding of platelets to the HeLa cells (HeLa cells, clone S3): almost completely inhibited

danaparoid
Difference in platelet binding between control and treatment (HeLa cells, clone S3; 1.25 U/mL, about 5 times the upper limit of the therapeutic range): no significant difference | Cell-bound platelets per cell (HeLa cells, clone S3; 1.25 U/mL, control 15.9+/-7.7 platelets/cell): 13.2 platelets/cell | Inhibition of platelet binding to growing cells (in words) (HeLa cells, clone S3): significantly lower effect | Inhibition of platelet binding to growing cells (in words) (HeLa cells, clone S3; listed as Danaparoid): to a lower extent

dermatan sulfate
Inhibition of platelet binding to growing cells (in words) (HeLa cells, clone S3): significantly less effective

enoxaparin
Reduction of platelet binding to the cells (HeLa cells, clone S3): significant reduction | Inhibition of the binding of platelets to the HeLa cells (HeLa cells, clone S3): almost completely inhibited

heparan sulfate
Inhibition of platelet binding to growing cells (in words) (HeLa cells, clone S3): significantly less effective

pentosan polysulfate [PPS]
Platelet aggregation in comparison to UFH (platelets): reduced platelet aggregation | Anticoagulant activity relative to heparin [1]: less than 1/10 and much weaker and 1/15 | Increase of cell number (proliferation) on day 5 (HeLa cells): increases to a reduced extent | Inhibition of platelet binding to growing cells (HeLa cells, clone S3): roughly 75% | Inhibition of platelet binding to growing cells (in words) (HeLa cells, clone S3): reproducible inhibition | Anticoagulation in comparison to UFH [2]: reduced anticoagulation

tinzaparin
Reduction of platelet binding to the cells (HeLa cells, clone S3): significant reduction | Inhibition of the binding of platelets to the HeLa cells (HeLa cells, clone S3): almost completely inhibited
